Results as given in US20100081679A1, “DIAMINOPYRIMIDINES AS FUNGICIDES” (Bayer CropScience AG, priority 2007, published 2010).
Marks after values point to notes of the source that are not given here. Each block holds one compound with its values, some of them ahead of it.

Assay: logP determination via retention times, calibrated with unbranched alkan-2-ones
Type: physicochemical
[1] = method *: HPLC reversed-phase C18, 40° C., 0.1% aqueous formic acid and acetonitrile, linear gradient 10% to 95% acetonitrile
[2] = HPLC on reversed-phase C 18, EEC Directive 79/831 Annex V.A8, method *: 40° C., 0.1% aqueous formic acid and acetonitrile, linear gradient 10% to 95% acetonitrile
[3] = method **: HPLC reversed-phase C 18, 43° C., 0.1% aqueous phosphoric acid and acetonitrile, linear gradient 10% to 95% acetonitrile
[4] = HPLC on reversed-phase C18, method *: 40° C., 0.1% aqueous formic acid and acetonitrile, linear gradient 10% to 95% acetonitrile
[5] = HPLC on reversed-phase C18, method *: 40° C., mobile phase 0.1% aqueous formic acid and acetonitrile, linear gradient 10% to 95% acetonitrile
[6] = HPLC on reversed-phase C18 column (EEC Directive 79/831 Annex V.A8), method *: 40° C., 0.1% aqueous formic acid and acetonitrile, linear gradient 10% to 95% acetonitrile
[7] = method **: HPLC reversed-phase C 18, temperature 43° C., mobile phase 0.1% aqueous phosphoric acid and acetonitrile, linear gradient 10% to 95% acetonitrile
[8] = method *: HPLC reversed-phase C 18, temperature 40° C., mobile phase 0.1% aqueous formic acid and acetonitrile, linear gradient 10% to 95% acetonitrile
[9] = HPLC reversed-phase C 18, EEC Directive 79/831 Annex V.A8, method **: 43° C., 0.1% aqueous phosphoric acid and acetonitrile, linear gradient 10% to 95% acetonitrile
[10] = method **: HPLC, reversed-phase C 18, 43° C., mobile phase 0.1% aqueous phosphoric acid and acetonitrile, linear gradient from 10% to 95% acetonitrile
[11] = HPLC reversed-phase C 18, EEC Directive 79/831 Annex V.A8, method *: 40° C., 0.1% aqueous formic acid and acetonitrile, linear gradient 10% to 95% acetonitrile
[12] = method *: HPLC, reversed-phase C 18, 40° C., mobile phase 0.1% aqueous formic acid and acetonitrile, linear gradient from 10% to 95% acetonitrile

SMILES: C=CCNC(=O)c1ccc(Nc2ncc(Br)c(NCC3CC3)n2)cc1 [compound 425]
logP [1]: 1.9*

SMILES: CN1CC(=O)N(c2ccc(Nc3ncc(Cl)c(NCC4CC4)n3)cc2)C1=O [compound 523]
logP [2]: 1.53*

SMILES: Oc1cccc(Nc2ncc(Br)c(NC3CC3)n2)c1 [compound 765]
logP [4]: 1.39*

SMILES: O=C1NC(=O)C(c2ccc(Nc3ncc(Br)c(NC4CC4)n3)cc2)N1 (stereo not shown) [compound 384]
logP [1]: 0.62*

SMILES: O=S(=O)(Cc1cccc(Nc2ncc(Cl)c(NC3CC3)n2)c1)Nc1ccccc1 [compound 370]
logP [1]: 2.15*

SMILES: CC(=O)Nc1ccc(Nc2ncc(C(F)(F)F)c(NC3CC3)n2)cc1Cl [compound 648]
logP [7]: 2.27**
logP [8]: 2.18*;

SMILES: O=C(NC1CC1)c1cccc(Nc2ncc(Cl)c(NC3CC3)n2)c1 [compound 629]
logP [8]: 1.39*

SMILES: CON(C(C)=O)c1cccc(Nc2ncc(Br)c(NC3CC3)n2)c1 [compound 849]
logP [9]: 1.68**

SMILES: CC(=O)N(C)c1ccc(Nc2ncc(C#N)c(NC3CC3)n2)cc1 [compound 158]
logP [4]: 1.69*

SMILES: COc1ccc(CN(c2nc(Nc3cccc(N4CCCC4=O)c3)ncc2Cl)C2CC2)cc1 [compound 1045]
logP [10]: 3.37**

SMILES: O=C(c1cccc(Nc2ncc(Cl)c(NC3CC3)n2)c1)N1CCCC1 [compound 848]
logP [11]: 1.57*

SMILES: O=C1OCCN1c1cccc(Nc2ncc(C(F)(F)F)c(NC3CC3)n2)c1 [compound 834]
logP [9]: 2.18**
logP [11]: 2.18*;

SMILES: O=C1CCCCN1c1ccc(Nc2ncc(Cl)c(NC3CC3)n2)cc1 [compound 569]
logP [8]: 1.47*

SMILES: CN1CCN(c2ccc(Nc3ncc(Cl)c(NC4CC4)n3)cc2C(F)(F)F)CC1 [compound 846]
logP [9]: 1.38**

SMILES: CCOC(=O)Nc1ccc(Nc2ncc(F)c(NC3CC3)n2)cc1 [compound 595]
logP [8]: 1.46*

SMILES: CSc1cccc(Nc2ncc(C(F)(F)F)c(NCC3CC3)n2)c1 [compound 208]
logP [6]: 3.41*

SMILES: CN(C)C(=O)c1ccc(Nc2ncc(Br)c(NCC3CC3)n2)cc1 [compound 452]
logP [1]: 1.66*;

SMILES: O=S(=O)(c1cccc(Nc2ncc(Br)c(NCC3CC3)n2)c1)N1CCCCC1 [compound 454]
logP [1]: 2.29*

SMILES: CN(C=O)c1ccc(Nc2ncc(Cl)c(NCC3CC3)n2)cc1 [compound 545]
logP [2]: 1.56*

SMILES: CN(C)S(=O)(=O)c1cccc(Nc2ncc(Cl)c(NCC3CC3)n2)c1 [compound 49]
logP [3]: 2.18**

SMILES: CC(=O)Nc1cc(Nc2ncc(Br)c(NCC3CC3)n2)ccc1C [compound 468]
logP [2]: 1.51*

SMILES: Cc1cnc(Nc2ccccc2)nc1NC1CC1 [Example 51]
logP [1]: 1.5*

SMILES: N#Cc1ccc(Nc2ncc(C(F)(F)F)c(NC3CC3)n2)cc1 [compound 642]
logP [8]: 2.99*

SMILES: Clc1cnc(Nc2ccccc2)nc1NC1CC1c1ccccc1 (stereo not shown) [compound 1014]
logP [10]: 2.77**

SMILES: FC(F)Oc1ccc(Nc2ncc(Cl)c(NCC3CC3)n2)cc1 [compound 538]
logP [2]: 2.25*

SMILES: COC(c1cccc(Nc2ncc(C(F)(F)F)c(NC3CC3)n2)c1)C(F)(F)F (stereo not shown) [compound 624]
logP [8]: 3.74*

SMILES: O=C(c1ccc(Nc2ncc(Cl)c(NC3CC3)n2)cc1)N1CCCCC1 [compound 723]
logP [4]: 1.97*

SMILES: CC(=O)Cc1cccc(Nc2ncc(Br)c(NC3CC3)n2)c1 [compound 782]
logP [11]: 1.64*

SMILES: COC(C)c1cccc(Nc2ncc(Br)c(NC3CC3)n2)c1 (stereo not shown) [compound 805]
logP [11]: 2.08*

SMILES: COCc1cccc(Nc2ncc(Cl)c(NC3CC3(C)C)n2)c1 (stereo not shown) [compound 1028]
logP [10]: 2.37**
logP [12]: 2.36*;

SMILES: CS(=O)(=O)Cc1cccc(Nc2ncc(Cl)c(NCC3CC3)n2)c1 [compound 566]
logP [8]: 1.38*

SMILES: CCN(C(C)=O)c1ccc(Nc2ncc(Cl)c(NCC3CC3)n2)cc1 [compound 506]
logP [2]: 1.73*

SMILES: CN1CCN(C(=O)c2cccc(Nc3ncc(Cl)c(NC4CC4)n3)c2)CC1 [compound 1059]
logP [12]: 0.59*

SMILES: O=C1CCCN1c1cc(F)cc(Nc2ncc(Cl)c(NC3CC3)n2)c1 [compound 625]
logP [7]: 1.83**

SMILES: CSc1cc(Nc2ncc(Cl)c(NCC3CC3)n2)ccc1C [compound 547]
logP [2]: 2.45*

SMILES: Cc1cc(Nc2ncc(Cl)c(NC3CC3)n2)c(C)cc1N [compound 313]
logP (HPLC on reversed-phase C18, method **: 43° C., mobile phase 0.1% aqueous phosphoric acid and acetonitrile, linear gradient 10% to 95% acetonitrile): 0.87**

SMILES: COCc1cccc(Nc2ncc(I)c(NC3CC3)n2)c1 [compound 847]
logP [11]: 1.86*

SMILES: Clc1cnc(Nc2ccc(-c3cscn3)cc2)nc1NCC1CC1 [compound 689]
logP [4]: 2.06*

SMILES: O=C1CCCCN1c1cccc(Nc2ncc(C(F)(F)F)c(NC3CC3)n2)c1 [compound 803]
logP [11]: 2.18*

SMILES: C=CCOc1cccc(Nc2ncc(C(F)(F)F)c(NC3CC3)n2)c1 [compound 1024]
logP [10]: 3.54**

SMILES: CC(=O)c1cccc(Nc2ncc(C(F)(F)F)c(NC3CC3)n2)c1 [compound 657]
logP [7]: 2.72**
logP [8]: 2.57*;

SMILES: CN(C(=O)C(C)(C)C)c1ccc(Nc2ncc(Cl)c(NCC3CC3)n2)cc1 [compound 525]
logP [2]: 2.02*

SMILES: CS(=O)(=O)c1ccc(Nc2ncc(Br)c(NCC3CC3)n2)cc1 [compound 448]
logP [1]: 2.09*

SMILES: CSc1ccc(Nc2ncc(C(F)(F)F)c(NC3CC3)n2)cc1 [compound 653]
logP [7]: 3.35**
logP [8]: 3.1*;

SMILES: CSc1cc(Nc2ncc(Br)c(NCC3CC3)n2)ccc1C [compound 459]
logP [1]: 2.58*

SMILES: FC(F)(F)c1cnc(Cl)nc1NC1CC1 [2-chloro-N-cyclopropyl-5-trifluoromethylpyrimidine-4-amine]
chromatographic logP (pH 2.3, read-out: logP (pH2.3)): 2.39

SMILES: FC(F)(F)Oc1ccc(Nc2ncc(Cl)c(NCC3CC3)n2)cc1 [compound 688]
logP [4]: 2.95*

SMILES: CC(=O)Nc1cccc(Nc2ncc(C(F)(F)F)c(NCC3CC3)n2)c1 [compound 204]
logP [6]: 1.9*

SMILES: CNC(=O)c1cccc(Nc2ncc(Cl)c(NCC3CC3)n2)c1 [compound 511]
logP [2]: 1.44*

SMILES: O=C1CCCN1Cc1ccc(Nc2ncc(Cl)c(NC3CC3)n2)cc1 [compound 432]
logP [1]: 1.36*

SMILES: O=C(c1cccc(Nc2ncc(Cl)c(NC3CC3)n2)c1)N1CCOCC1 [compound 735]
logP [4]: 1.33*

SMILES: CC(=O)Cc1cccc(Nc2ncc(C(F)(F)F)c(NC3CC3)n2)c1 [compound 783]
logP [11]: 2.42*

SMILES: CCc1cccc(Nc2ncc(Br)c(NC3CC3)n2)c1 [compound 775]
logP [11]: 2.44*

Now from value to compound:

logP [3]: 2.25**
SMILES: COC(=O)c1ccc(Nc2ncc(Cl)c(NC3CC3)n2)cc1.Cl [compound 36]

logP [4]: 2.11*
SMILES: CCC(C)c1ccccc1Nc1ncc(Cl)c(NC2CC2)n1 (stereo not shown) [compound 907]

logP [5]: 3.44*
SMILES: FC(F)Oc1cc(Nc2ncc(Br)c(NC3CC3)n2)ccc1Cl [compound 311]

logP [1]: 3.33*
SMILES: CCCSc1cccc(Nc2ncc(Cl)c(NC3CC3)n2)c1 [compound 437]

logP [6]: 1.9*
SMILES: COC(=O)c1cccc(Nc2ncc(Cl)c(NC3CC3)n2)c1 [compound 196]

logP [5]: 2.48*
SMILES: Clc1cnc(Nc2ccc(OC3CCCC3)cc2)nc1NC1CC1 [compound 299]

logP [3]: 1.45**
SMILES: O=C1CCCN1c1ccc(Nc2ncc(Cl)c(NC3CC3)n2)cc1 [Example 34]

logP [1]: 2.2*
SMILES: COC(=O)Nc1ccc(Nc2ncc(Br)c(NC3CC3)n2)cc1Cl [compound 430]

logP [3]: 2.26**
SMILES: CN(C)S(=O)(=O)c1ccc(Nc2ncc(Cl)c(NC3CC3)n2)cc1 [Example 6]

logP [4]: 1.66*
SMILES: N#CCc1cccc(Nc2ncc(Cl)c(NC3CC3)n2)c1 [compound 712]

logP [5]: 2.13*
SMILES: N#Cc1cccc(Nc2ncc(Cl)c(NC3CC3)n2)c1 [compound 278]

logP [12]: 1.76*
SMILES: COCc1cc(COC)cc(Nc2ncc(Cl)c(NC3CC3)n2)c1 [compound 1012]

logP [1]: 1.34*
SMILES: COc1ccc(Nc2ncc(Cl)c(NC3CC3)n2)cn1 [compound 92]

logP [6]: 0.92*
SMILES: Clc1cnc(Nc2ccc(NC3CC3)nc2)nc1NC1CC1 [compound 186]

logP [7]: 2.23**
SMILES: Clc1cnc(Nc2cccc(N3CCCC3)c2)nc1NC1CC1 [compound 619]

logP [8]: 3.15*
SMILES: Fc1cccc(Nc2ncc(Cl)c(NC3CC3)n2)c1 [compound 620]

logP [4]: 1.52*
SMILES: C/C(=N/O)c1cccc(Nc2ncc(Cl)c(NC3CC3)n2)c1 [compound 736]

logP [9]: 1.57**
SMILES: CON(C(C)=O)c1cccc(Nc2ncc(Cl)c(NC3CC3)n2)c1 [compound 850]

logP [11]: 1.47*
SMILES: COCC(C)NC(=O)c1cccc(Nc2ncc(Cl)c(NC3CC3)n2)c1 (stereo not shown) [compound 796]

logP [4]: 2.99*
SMILES: CCC(C)Oc1cc(Nc2ncc(Cl)c(NC3CC3)n2)ccc1C (racemic) [compound 955]

logP [12]: 2.42*
SMILES: CC(C)Oc1ccc(Nc2ncc(Cl)c(NC3CC3)n2)cc1OC(C)C [compound 992]

logP [4]: 3.59*
SMILES: COc1cc(Nc2ncc(C(F)(F)F)c(NC3CC3)n2)ccc1Cl [compound 700]

logP [1]: 2.33*
SMILES: N#Cc1ccc(Nc2ncc(Cl)c(NC3CC3)n2)cc1 [compound 374]

logP [5]: 1.59*
SMILES: Clc1cnc(Nc2ccc3c(c2)OCO3)nc1NC1CC1 [compound 295]
